Ends that are not written are not given here.
Test system: HeLa, NIH 3T3, COLO 316 and HaCaT
Conditions: 5 μM
Experimental: The TAT, dTAT and acTAT peptides were incubated for 1 h with several cell lines and internalization was assessed by fluorescence microscopy. […] See also FIG. 5. […] The cell lines HeLa, NIH 3T3, COLO 316 and HaCaT were incubated with 5 μM dTAT for 1 h, washed and imaged. […] After imaging, cells were incubated at 37° C. in a humidified atmosphere containing 5% CO2 for 24 h, washed and imaged again. […] Cell viability was assessed by exclusion of the cell-impermeable nuclear stain SYTOX® Blue at both 1 h and 24 h time point. […] Inverted monochrome (black=fluorescence signal, white-no signal) fluorescence images were made of HeLa cells incubated with 10 or 20 μM of TAT for 1 h.
Live cells from different lines (HeLa, HaCat, NIH 3T3) were grown in Dulbecco's […] (DMEM) (Fisher) supplemented with 10% fetal bovine serum (FBS) (Fisher) and kept at 37° C. in a humidified atmosphere containing 5% CO2. […] Images were acquired using bright field imaging and three standard fluorescence filter sets: CFP (Ex=436±10 nm/Em=480±20 nm), RFP (Ex=560±20 nm/Em=630±35 nm), and FITC (Ex=488±10 nm/Em=520±20 nm). The fluorescence intensities of different cells were measured with the SlideBook 4.2 software (Olympus, Center Valley, Pa.) and the average fluorescence intensity was determined for each condition. […]

Substance: (CK(TMR)TAT)2 (CK(TMR)RKKRRQRRRG; also: dimer) [dTAT]
- cellular localization of fluorescence signal (1 h): in the cytosol and nucleus of cells
- plasma membrane integrity, SYTOX Blue staining (1 h incubation, 1 h and 24 h time points): not stained with SYTOX® Blue

— patent US9662404B2, “Compositions and methods for the delivery of molecules into live cells” (The Texas A&M University System, priority 2013, dated 2017)
